Experimental data from article PMC11822212, “High-throughput screening identifies Aurora kinase B as a critical therapeutic target for Merkel cell carcinoma” (Nature Communications, 2025).

Columns and labels:
HEK293T cells = experiment: qHTS cell viability (CellTiter-Glo, 72 h; primary screen), control cell line; type: cell-based, human
[1] = system: VN-MCC cell lines (MCC13, MCC26, UISO); experiment: qHTS cell viability, VN-MCC cell lines as a group (mean AUC, VN.MCC.avg); type: cell-based, human; details: for VN-MCC_Avg_AUC: mean AUC of VN-MCC cell lines
WAGA cells (VP-MCC) = experiment: qHTS cell viability (CellTiter-Glo, 72 h; primary and follow-up small molecule screen); type: cell-based, human
MCC13 cells (VN-MCC) = experiment: as above; type: cell-based, human
[2] = system: six MCC cell lines and four control cell lines; experiment: qHTS cell viability, all 10 cell lines screened; type: cell-based
MCC26 cells (VN-MCC) = experiment: qHTS cell viability (CellTiter-Glo, 72 h; primary and follow-up small molecule screen); type: cell-based, human
CRL-7250 cells = experiment: qHTS cell viability (CellTiter-Glo, 72 h; primary screen), control cell line; type: cell-based
UISO cells (VN-MCC) = experiment: qHTS cell viability (CellTiter-Glo, 72 h; primary and follow-up small molecule screen); type: cell-based, human
NIH-3T3 cells = experiment: qHTS cell viability (CellTiter-Glo, 72 h; primary screen), control cell line; type: cell-based, mouse
[3] = system: MCC cell lines (WAGA, MKL-1, MKL-2, MCC13, MCC26, UISO); experiment: qHTS cell viability, all six MCC cell lines as a group (mean AUC, MCC.avg); type: cell-based, human; details: mean AUC of six MCC cell lines
HACAT cells = experiment: qHTS cell viability (CellTiter-Glo, 72 h; primary screen), control cell line; type: cell-based, human
[4] = system: control cell lines (HACAT, HEK293T, CRL-7250, NIH-3T3); experiment: qHTS cell viability, control cell lines as a group (mean AUC, Control.avg); type: cell-based; details: mean AUC of control cell lines
MKL-2 cells (VP-MCC) = experiment: qHTS cell viability (CellTiter-Glo, 72 h; primary and follow-up small molecule screen); type: cell-based, human
MKL-1 cells (VP-MCC) = experiment: as above; type: cell-based, human
[5] = system: VP-MCC cell lines (WAGA, MKL-1, MKL-2); experiment: qHTS cell viability, VP-MCC cell lines as a group (mean AUC, VP.MCC.avg); type: cell-based, human; details: for VP-MCC_Avg_AUC: mean AUC of VP-MCC cell lines
[6] = MIPE library, 11-point DRC, control cell line, sheet S2E
[7] = MIPE library, 11-point DRC, sheet S2E

Q: With CN(CC1(C)CCCO1)S(=O)(=O)c1ccc(Cl)c(S(N)(=O)=O)c1 (centres unmarked) [Mefruside] as the compound, how does the HEK293T_AUC (HEK293T cells; NPC library, qHTS dose-response AUC, HEK293T control) read?
A: 446.841

Q: And the VN-MCC_Avg_AUC ([1]; NPC library)?
A: 490.65

Q: And the Control-VN-MCC ([1]; NPC library, therapeutic window: Control avg AUC minus VN-MCC avg AUC)?
A: -22.9615

Q: And the WAGA_AUC (WAGA cells (VP-MCC); NPC library, qHTS dose-response AUC, WAGA)?
A: 408.321

Q: What about the MCC13_AUC (MCC13 cells (VN-MCC); NPC library, qHTS dose-response AUC, MCC13) of the same compound?
A: 487.176

Q: And the Control-MCC ([2]; NPC library, therapeutic window: Control avg AUC minus MCC avg AUC)?
A: 16.8852

Q: And the MCC26_AUC (MCC26 cells (VN-MCC); NPC library, qHTS dose-response AUC, MCC26)?
A: 494.694

Q: And the CRL7250_AUC (CRL-7250 cells; NPC library, qHTS dose-response AUC, CRL7250 control)?
A: 471.553

Q: And the UISO_AUC (UISO cells (VN-MCC); NPC library, qHTS dose-response AUC, UISO)?
A: 490.08

Q: What about the NIH3T3_AUC (NIH-3T3 cells; NPC library, qHTS dose-response AUC, NIH3T3 control) of the same compound?
A: 485.692

Q: And the MCC_Avg_AUC ([3]; NPC library)?
A: 450.803

Q: What about the HACAT_AUC (HACAT cells; NPC library, qHTS dose-response AUC, HACAT control) of the same compound?
A: 466.668

Q: And the Control_Avg_AUC ([4]; NPC library)?
A: 467.688

Q: What about the MKL2_AUC (MKL-2 cells (VP-MCC); NPC library, qHTS dose-response AUC, MKL2) of the same compound?
A: 389.363

Q: What about the MKL1_AUC (MKL-1 cells (VP-MCC); NPC library, qHTS dose-response AUC, MKL1) of the same compound?
A: 435.185

Q: What about the VP-MCC_Avg_AUC ([5]; NPC library) of the same compound?
A: 410.957

Q: What about the Control-VP-MCC ([5]; NPC library, therapeutic window: Control avg AUC minus VP-MCC avg AUC) of the same compound?
A: 56.732

Q: Which results are given for CC(=O)O[C@]1(C(C)=O)CC[C@H]2[C@@H]3C=C(C)C4=CC(=O)CC[C@]4(C)[C@H]3CC[C@@]21C [Megestrol acetate]?
A: HEK293T_AUC (HEK293T cells; [6]): 472.9; HEK293T_AUC (HEK293T cells; area under the dose-response curve, HEK293T control cells, AUC<450 = reduced viability): 457.911; Control-VN-MCC ([1]; MIPE library, Control AUC minus VN-MCC AUC (therapeutic window), sheet S2E): -9.613; VN-MCC_Avg_AUC ([1]; MIPE library, sheet S2E): 473.519; WAGA_AUC (WAGA cells (VP-MCC); [7]): 348.793; WAGA_AUC (WAGA cells (VP-MCC); area under the dose-response curve, WAGA cells, AUC<450 = reduced viability): 442.363; Area under the dose-response curve (AUC) WAGA Replicate 1 (WAGA cells (VP-MCC); follow-up screen, WAGA, replicate 1): 536.2; Area under the dose-response curve (AUC) WAGA Replicate 2 (WAGA cells (VP-MCC); follow-up screen, WAGA, replicate 2): 483.3; Area under the dose-response curve (AUC) WAGA Replicate 3 (WAGA cells (VP-MCC); follow-up screen, WAGA, replicate 3): 478.6; MCC13_AUC (MCC13 cells (VN-MCC); [7]): 479.341; MCC13_AUC (MCC13 cells (VN-MCC); area under the dose-response curve, MCC13 cells, AUC<450 = reduced viability): 479.661; Area under the dose-response curve (AUC) MCC13 Replicate 1 (MCC13 cells (VN-MCC); follow-up screen, MCC13, replicate 1): 522.1; Area under the dose-response curve (AUC) MCC13 Replicate 2 (MCC13 cells (VN-MCC); follow-up screen, MCC13, replicate 2): 498.9; Area under the dose-response curve (AUC) MCC13 Replicate 3 (MCC13 cells (VN-MCC); follow-up screen, MCC13, replicate 3): 453.4; Control-MCC ([2]; MIPE library, Control AUC minus MCC AUC (therapeutic window), sheet S2E): 39.5225; MCC26_AUC (MCC26 cells (VN-MCC); [7]): 477.94; MCC26_AUC (MCC26 cells (VN-MCC); area under the dose-response curve, MCC26 cells, AUC<450 = reduced viability): 486.411; Area under the dose-response curve (AUC) MCC26 Replicate 1 (MCC26 cells (VN-MCC); follow-up screen, MCC26, replicate 1): 464.5; Area under the dose-response curve (AUC) MCC26 Replicate 2 (MCC26 cells (VN-MCC); follow-up screen, MCC26, replicate 2): 445.6; Area under the dose-response curve (AUC) MCC26 Replicate 3 (MCC26 cells (VN-MCC); follow-up screen, MCC26, replicate 3): 484.7; CRL7250_AUC (CRL-7250 cells; [6]): 475.825; CRL7250_AUC (CRL-7250 cells; area under the dose-response curve, CRL7250 control cells, AUC<450 = reduced viability): 475.174; UISO_AUC (UISO cells (VN-MCC); [7]): 463.276; UISO_AUC (UISO cells (VN-MCC); area under the dose-response curve, UISO cells, AUC<450 = reduced viability): 481.624; Area under the dose-response curve (AUC) UISO Replicate 1 (UISO cells (VN-MCC); follow-up screen, UISO, replicate 1): 487.9; Area under the dose-response curve (AUC) UISO Replicate 2 (UISO cells (VN-MCC); follow-up screen, UISO, replicate 2): 467.2; Area under the dose-response curve (AUC) UISO Replicate 3 (UISO cells (VN-MCC); follow-up screen, UISO, replicate 3): 452.8; NIH3T3_AUC (NIH-3T3 cells; [6]): 472.047; NIH3T3_AUC (NIH-3T3 cells; area under the dose-response curve, NIH3T3 control cells, AUC<450 = reduced viability): 478.678; MCC_Avg_AUC ([3]; MIPE library, sheet S2E): 424.384; HACAT_AUC (HACAT cells; [6]): 434.851; HACAT_AUC (HACAT cells; area under the dose-response curve, HACAT control cells, AUC<450 = reduced viability): 455.962; Control_Avg_AUC ([4]; MIPE library, sheet S2E): 463.906; MKL2_AUC (MKL-2 cells (VP-MCC); [7]): 396.638; MKL2_AUC (MKL-2 cells (VP-MCC); area under the dose-response curve, MKL-2 cells, AUC<450 = reduced viability): 447.482; Area under the dose-response curve (AUC) MKL-2 Replicate 1 (MKL-2 cells (VP-MCC); follow-up screen, MKL-2, replicate 1): 460.3; Area under the dose-response curve (AUC) MKL-2 Replicate 2 (MKL-2 cells (VP-MCC); follow-up screen, MKL-2, replicate 2): 492.7; Area under the dose-response curve (AUC) MKL-2 Replicate 3 (MKL-2 cells (VP-MCC); follow-up screen, MKL-2, replicate 3): 490.0; MKL1_AUC (MKL-1 cells (VP-MCC); [7]): 380.312; MKL1_AUC (MKL-1 cells (VP-MCC); area under the dose-response curve, MKL-1 cells, AUC<450 = reduced viability): 437.052; Area under the dose-response curve (AUC) MKL-1 Replicate 1 (MKL-1 cells (VP-MCC); follow-up screen, MKL-1, replicate 1): 482.4; Area under the dose-response curve (AUC) MKL-1 Replicate 2 (MKL-1 cells (VP-MCC); follow-up screen, MKL-1, replicate 2): 475.6; Area under the dose-response curve (AUC) MKL-1 Replicate 3 (MKL-1 cells (VP-MCC); follow-up screen, MKL-1, replicate 3): 473.0; Control-VP-MCC ([5]; MIPE library, Control AUC minus VP-MCC AUC (therapeutic window), sheet S2E): 88.658; VP-MCC_Avg_AUC ([5]; MIPE library, sheet S2E): 375.248
